Laboratory results from US8148410B2, “Thiophene derivatives as agonists of S1P1/EDG1” (Actelion Pharmaceuticals Ltd., priority 2007, dated 2012).

Target: recombinant human S1P1 receptor (Homo sapiens, UniProt P21453)
Assay: GTPγS assay to determine EC50 values
Assay type: biochemical
Conditions: agonist concentration inducing 50% of maximal specific 35S-GTPγS binding; membranes of CHO cells expressing recombinant human S1P1
Procedure: GTPγS Assay to Determine EC50 Values
GTPγS binding assays are performed in 96 well microtiter plates (Nunc, 442587) in a final volume of 200 μl, using membrane preparations of CHO cells expressing recombinant human S1P1 receptor. Assay conditions are 20 mM Hepes (Fluka, 54461), 100 mM NaCl (Fluka, 71378), 5 mM MgCl2 (Fluka, 63064), 0.1% BSA (Calbiochem, 126609), 1 μM GDP (Sigma, G-7127), 2.5% DMSO (Fluka, 41644), 50 pM ^35S-GTPγS (Amersham Biosciences, SJ1320). The pH is 7.4. Test compounds are dissolved and diluted in 100% DMSO and pre-incubated at room temperature for 30 min in 150 μl of the above assay buffer, in the absence of ^35S-GTPγS. After addition of 50 μl of ^35S-GTPγS, the assay is incubated for 1 h at rt. The assay is terminated by transfer of the reaction mixture to a Multiscreen plate (Millipore, MAHFC1H60) using a cell harvester from Packard Biosciences, and the plates are washed with ice-cold 10 mM Na2HPO4/NaH2PO4 (70%/30%), dried, sealed at the bottom and, after addition of 25 μl MicroScint20 (Packard Biosciences, order #6013621), sealed on the top. Membrane-bound ^35S-GTPγS is measured with a TopCount from Packard Biosciences.
Specific binding is determined by subtracting non-specific binding from maximal binding. Maximal binding is the amount of cpm bound to the Multiscreen plate in the presence of 10 μM of S1P. Non-specific binding is the amount of binding in the absence of an agonist in the assay.

Sequence of recombinant human S1P1 receptor (P21453 whole entry): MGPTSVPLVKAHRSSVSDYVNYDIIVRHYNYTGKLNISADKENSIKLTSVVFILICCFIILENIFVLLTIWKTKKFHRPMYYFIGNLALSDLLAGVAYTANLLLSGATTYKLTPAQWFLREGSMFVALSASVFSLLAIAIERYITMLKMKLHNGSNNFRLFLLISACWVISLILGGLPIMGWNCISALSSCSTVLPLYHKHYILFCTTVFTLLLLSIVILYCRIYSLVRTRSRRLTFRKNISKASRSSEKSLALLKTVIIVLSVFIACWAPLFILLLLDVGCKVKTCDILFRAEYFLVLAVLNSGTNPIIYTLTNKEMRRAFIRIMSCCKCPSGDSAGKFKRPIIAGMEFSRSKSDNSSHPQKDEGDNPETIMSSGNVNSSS

EC50 | SMILES
3.8 nM | CNCc1sc(-c2nc(-c3cc(C)c(OCC(O)CNC(=O)CO)c(C)c3)no2)cc1C (racemic) [Example 21]
11 nM | Cc1cc(-c2nc(-c3cc(C)c(OCC(O)CNC(=O)CO)c(C)c3)no2)sc1CNC(C)C (racemic) [Example 24]
0.2 nM | CCCN(C)Cc1sc(-c2nc(-c3cc(C)c(OCC(O)CNC(=O)CO)c(C)c3)no2)cc1C (racemic) [Example 28]
10.2 nM | Cc1cc(-c2nc(-c3cc(C)c(OCC(O)CNC(=O)CO)c(C)c3)no2)sc1CN(C)CCO (racemic) [Example 30]
8.1 nM | CCN(CCO)Cc1sc(-c2nc(-c3cc(C)c(OCC(O)CNC(=O)CO)c(C)c3)no2)cc1C (racemic) [Example 31]
11.2 nM | Cc1cc(-c2nc(-c3cc(C)c(OCC(O)CNC(=O)CO)c(C)c3)no2)sc1CN1CCCC1 (racemic) [Example 32]
9.8 nM | Cc1cc(-c2nc(-c3cc(C)c(OCC(O)CNC(=O)CO)c(C)c3)no2)sc1CN1CCCCC1 (racemic) [Example 33]
12.1 nM | CCN(CC)Cc1sc(-c2nc(-c3cc(C)c(CCC(=O)O)c(C)c3)no2)cc1C [Example 44]
2.2 nM | CCc1cc(-c2noc(-c3cc(C)c(CN(C)CC)s3)n2)cc(C)c1OC[C@@H](O)CNC(=O)CO [Example 52]
2 nM | CCCCN(C)Cc1sc(-c2nc(-c3cc(C)c(OC[C@@H](O)CNC(=O)CO)c(CC)c3)no2)cc1C [Example 54]
2.5 nM | CCc1cc(-c2noc(-c3cc(C)c(CN(CC)CC)s3)n2)cc(C)c1OC[C@@H](O)CNC(=O)CO [Example 56]
2.8 nM | CCCN(CC)Cc1sc(-c2nc(-c3cc(C)c(OC[C@@H](O)CNC(=O)CO)c(CC)c3)no2)cc1C [Example 57]
3.3 nM | CCc1cc(-c2noc(-c3cc(C)c(CN(CC)C(C)C)s3)n2)cc(C)c1OC[C@@H](O)CNC(=O)CO [Example 58]
7 nM | CCCCN(CC)Cc1sc(-c2nc(-c3cc(C)c(OC[C@@H](O)CNC(=O)CO)c(CC)c3)no2)cc1C [Example 59]
2.6 nM | CCc1cc(-c2nc(-c3cc(C)c(OC[C@H](O)CO)c(CC)c3)no2)sc1CN(C)C [Example 81]
0.8 nM | CCCN(C)Cc1sc(-c2nc(-c3cc(C)c(OC[C@@H](O)CNC(=O)CO)c(CC)c3)no2)cc1CC [Example 84]
9.1 nM | CCCN(C)Cc1sc(-c2nc(-c3cc(C)c(CCC(=O)O)c(CC)c3)no2)cc1CC [Example 86]
0.6 nM | Cc1cc(-c2nc(-c3cc(C)c(OC[C@@H](O)CNC(=O)CO)c(C)c3)no2)sc1CN(C)C [Example 87, N-((2S)-3-{4-[5-(5-Dimethylaminomethyl-4-methyl-thiophen-2-yl)-[1,2,4]oxadiazol-3-yl]-2,6-dimethyl-phenoxy}-2-hydroxy-propyl)-2-hydroxy-acetamide]
0.5 nM | CCN(Cc1sc(-c2nc(-c3cc(C)c(OC[C@@H](O)CNC(=O)CO)c(C)c3)no2)cc1C)C(C)C [Example 92, N-{(2S)-3-[4-(5-{5-[(Ethyl-isopropyl-amino)-methyl]-4-methyl-thiophen-2-yl}-[1,2,4]oxadiazol-3-yl)-2,6-dimethyl-phenoxy]-2-hydroxy-propyl}-2-hydroxy-acetamide]

EC50 | SMILES
17.3 nM | CCCN(C)Cc1sc(-c2nc(-c3cc(C)c(CCC(=O)NCC(=O)OC)c(CC)c3)no2)cc1C [Example 98]
8.6 nM | CCc1cc(-c2noc(-c3cc(C)c(CN(CC)CC)s3)n2)cc(C)c1CCC(=O)NCC(=O)O [Example 106]
10.5 nM | CCCN(C)Cc1sc(-c2nc(-c3cc(C)c(CCC(=O)NCCC(=O)O)c(CC)c3)no2)cc1C [Example 115]
2.1 nM | CCCN(CC)Cc1sc(-c2nc(-c3cc(C)c(CCC(=O)NCCC(=O)O)c(CC)c3)no2)cc1C [Example 119]
18.5 nM | CCc1cc(-c2noc(-c3cc(C)c(CN(CC)CC)s3)n2)cc(C)c1CCC(=O)NCCO [Example 136]
1.6 nM | CCc1cc(-c2nc(-c3cc(C)c(CN(CC)CC)s3)no2)cc(C)c1OC[C@@H](O)CNC(=O)CO [Example 149]
5.4 nM | CCc1cc(-c2nnc(-c3cc(C)c(CN(C)C)s3)o2)cc(C)c1OC[C@@H](O)CNC(=O)CO [Example 150, N-((2S)-3-{4-[5-(5-Dimethylaminomethyl-4-methyl-thiophen-2-yl)-[1,3,4]oxadiazol-2-yl]-2-ethyl-6-methyl-phenoxy}-2-hydroxy-propyl)-2-hydroxy-acetamide]
22 nM | CCN(CC)Cc1sc(-c2nc(-c3cc(C)c(N)c(Cl)c3)no2)cc1C [Example 187, 2-Chloro-4-[5-(5-diethylaminomethyl-4-methyl-thiophen-2-yl)-[1,2,4]oxadiazol-3-yl]-6-methyl-phenylamine]
2.5 nM | CCN(CC)Cc1sc(-c2nc(-c3cc(C)c(OC[C@@H](O)CNC(=O)CO)c(OC)c3)no2)cc1C [Example 194, N-((2S)-3-{4-[5-(5-Diethylaminomethyl-4-methyl-thiophen-2-yl)-[1,2,4]oxadiazol-3-yl]-2-methoxy-6-methyl-phenoxy}-2-hydroxy-propyl)-2-hydroxy-acetamide]
0.2 nM | CCN(CC)Cc1sc(-c2nc(-c3cc(C)c(OC[C@@H](O)CNC(=O)CO)c(Cl)c3)no2)cc1C [Example 195, N-((2S)-3-{4-[5-(5-Diethylaminomethyl-4-methyl-thiophen-2-yl)-[1,2,4]oxadiazol-3-yl]-2-chloro-6-methyl-phenoxy}-2-hydroxy-propyl)-2-hydroxy-acetamide]
13 nM | CCN(CC)Cc1sc(-c2nc(-c3ccc(OCC(O)CNC(=O)CO)cc3C)no2)cc1C (stereo not shown) [Example 196, N-(3-{4-[5-(5-Diethylaminomethyl-4-methyl-thiophen-2-yl)-[1,2,4]oxadiazol-3-yl]-3-methyl-phenoxy}-2-hydroxy-propyl)-2-hydroxy-acetamide]
2.1 nM | CCN(CC)Cc1sc(-c2nc(-c3cc(C)c(OC[C@@H](O)CO)c(Cl)c3)no2)cc1C [Example 198, (2S)-3-{2-Chloro-4-[5-(5-diethylaminomethyl-4-methyl-thiophen-2-yl)-[1,2,4]oxadiazol-3-yl]-6-methyl-phenoxy}-propane-1,2-diol]
18.4 nM | CCc1cc(-c2noc(-c3cc(C)c(CN(CC)CC)s3)n2)cc(C)c1OC[C@@H](O)CN1CCC(C(=O)O)C1 (stereo partly drawn) [Example 205, 1-((2S)-3-{4-[5-(5-Diethylaminomethyl-4-methyl-thiophen-2-yl)-[1,2,4]oxadiazol-3-yl]-2-ethyl-6-methyl-phenoxy}-2-hydroxy-propyl)-pyrrolidine-3-carboxylic acid]
9.6 nM | CCc1cc(-c2noc(-c3cc(C)c(CN(CC)CC)s3)n2)cc(C)c1OC[C@@H](O)CNCCO [Example 210]
1.7 nM | CCc1cc(-c2noc(-c3cc(C)c(CN(CC)CC)s3)n2)cc(C)c1OC[C@@H](O)CNC(CO)CO [Example 214]
3.4 nM | CCc1cc(-c2noc(-c3cc(C)c(CN(CC)CC)s3)n2)cc(C)c1OC[C@@H](O)CNCC(=O)O [Example 220]
6.2 nM | CCc1cc(-c2noc(-c3cc(C)c(CN(CC)CC)s3)n2)cc(C)c1OC[C@@H](O)CNC(=O)CCO [Example 223]
1.1 nM | CCc1cc(-c2noc(-c3cc(C)c(CN(CC)CC)s3)n2)cc(C)c1OC[C@@H](O)CNC(=O)CN [Example 225]
3.5 nM | CCc1cc(-c2noc(-c3cc(C)c(CN(CC)CC)s3)n2)cc(C)c1OC[C@@H](O)CNC(=O)CNC [Example 226]

System: circulating lymphocytes
Assay: Assessment of in vivo efficacy: circulating lymphocytes after oral administration
Design: species or system normotensive male Wistar rats
Conditions: 3 h after oral administration of 10 mg/kg, compared to animals treated with vehicle only; mean ± SEM

SMILES | Lymphocyte counts
CCCN(C)Cc1sc(-c2nc(-c3cc(C)c(OCC(O)CNC(=O)CO)c(C)c3)no2)cc1C (racemic) [Example 28] | −68 ± 3%
CCc1cc(-c2noc(-c3cc(C)c(CN(CC)CC)s3)n2)cc(C)c1OC[C@@H](O)CNC(=O)CO [Example 56] | −68 ± 1%
